# ChEMBL document CHEMBL1154782, “Discovery of Trp-His and His-Arg analogues as new structural classes of short antimicrobial peptides” (J Med Chem, 2009)
# Where a SMILES comes first, the peptide text is derived from it. The star is where a group is joined. Boc = CC(C)(C)OC(=O)*; NHBn = c1ccc(CN*)cc1
# Legend:
# [1] = test system: Staphylococcus epidermidis; test: Antibacterial activity against methicillin-resistant Staphylococcus epidermidis DSM 50160384; assay type: functional, organism-based
# [2] = test system: Staphylococcus aureus; test: Antibacterial activity against methicillin-resistant Staphylococcus aureus DSM 50128509; assay type: functional, organism-based
# [3] = test system: Klebsiella pneumoniae; test: Antibacterial activity against Klebsiella pneumoniae ATCC 700603; assay type: functional, organism-based
# [4] = test system: Staphylococcus epidermidis; test: Antibacterial activity against methicillin-resistant Staphylococcus epidermidis DSM 50160384 after 15 to 18 hrs under aerobic condition by modified broth microdilution method; assay type: functional
# [5] = test system: Pseudomonas aeruginosa; test: Antibacterial activity against Pseudomonas aeruginosa ATCC 9027; assay type: functional, organism-based
# [6] = test system: L929; test: Cytotoxicity against mouse L929 cells up to 200 ug/mL after 5 days by MTT assay; assay type: cell-based; details: l929, 120 h
# [7] = test system: Staphylococcus aureus; test: Antibacterial activity against methicillin-resistant Staphylococcus aureus DSM 50128509 after 15 to 18 hrs under aerobic condition by modified broth microdilution method; assay type: functional
# [8] = test system: Pseudomonas aeruginosa; test: Antibacterial activity against Pseudomonas aeruginosa ATCC 9027 after 15 to 18 hrs under aerobic condition by modified broth microdilution method; assay type: functional
# [9] = test system: Escherichia coli; test: Antibacterial activity against Escherichia coli ATCC 35218 after 15 to 18 hrs under aerobic condition by modified broth microdilution method; assay type: functional
# [10] = test system: Candida albicans; test: Antifungal activity against Candida albicans ATCC 10231 after 15 to 18 hrs under aerobic condition by modified broth microdilution method; assay type: functional
# [11] = test system: Klebsiella pneumoniae; test: Antibacterial activity against Klebsiella pneumoniae ATCC 700603 after 15 to 18 hrs under aerobic condition by modified broth microdilution method; assay type: functional
# [12] = test system: Escherichia coli; test: Antibacterial activity against Escherichia coli ATCC 35218; assay type: functional, organism-based
# [13] = test system: Candida albicans; test: Antifungal activity against Candida albicans ATCC 10231; assay type: functional, organism-based
SMILES,IC50 [1],IC50 [2],IC50 [3],MIC [4],IC50 [5],Activity [6],MIC [7],MIC [8],MIC [9],MIC [10],MIC [11],IC50 [12],IC50 [13]
CC(C)(C)OC(=O)N[C@@H](Cc1c[nH]c(C23CC4CC(CC(C4)C2)C3)n1)C(=O)N[C@@H](CCCNC(=N)N)C(=O)NCc1ccccc1,11.5 µg/mL,7.47 µg/mL,15.1 µg/mL,100 µg/mL,27.2 µg/mL,Non-toxic,20 µg/mL,100 µg/mL,> 200 µg/mL,> 200 µg/mL,100 µg/mL,,
CC(C)c1nc(C[C@H](NC(=O)OC(C)(C)C)C(=O)N[C@@H](CCCNC(=N)N)C(=O)NCc2ccccc2)c[nH]1,12.7 µg/mL,17.9 µg/mL,,100 µg/mL,45.1 µg/mL,Non-toxic,100 µg/mL,200 µg/mL,200 µg/mL,> 200 µg/mL,> 200 µg/mL,23.7 µg/mL,
O=C(O)c1cn(C2CC2)c2cc(N3CCNCC3)c(F)cc2c1=O [CIPROFLOXACIN],,,,,1.18 µg/mL,,,,,,,,
CC(C)(C)OC(=O)N[C@@H](Cc1c[nH]c(C2CCC2)n1)C(=O)N[C@@H](CCCNC(=N)N)C(=O)NCc1ccccc1,19.3 µg/mL,,20.8 µg/mL,200 µg/mL,,Non-toxic,> 200 µg/mL,> 200 µg/mL,> 200 µg/mL,> 200 µg/mL,200 µg/mL,,
CC(C)c1nc(C[C@H](N)C(=O)N[C@@H](CCCNC(=N)N)C(=O)NCc2ccccc2)c[nH]1,12.8 µg/mL,4.85 µg/mL,,200 µg/mL,27.8 µg/mL,Non-toxic,100 µg/mL,200 µg/mL,> 200 µg/mL,> 200 µg/mL,> 200 µg/mL,,
N[C@@H](Cc1c[nH]c2ccccc12)C(=O)N[C@@H](Cc1c[nH]c(C2CCC2)n1)C(=O)NCc1ccccc1,8.51 µg/mL,27.1 µg/mL,,50 µg/mL,,Non-toxic,100 µg/mL,> 200 µg/mL,200 µg/mL,100 µg/mL,> 200 µg/mL,22.5 µg/mL,10.3 µg/mL
COC(=O)[C@H](Cc1c[nH]c(C23CC4CC(CC(C4)C2)C3)n1)NC(=O)[C@@H](N)Cc1c[nH]c2ccccc12,4.59 µg/mL,2.3 µg/mL,24.4 µg/mL,20 µg/mL,,Non-toxic,20 µg/mL,> 200 µg/mL,> 200 µg/mL,> 200 µg/mL,200 µg/mL,,
CC(C)(C)OC(=O)N[C@@H](Cc1c[nH]c2ccccc12)C(=O)N[C@@H](Cc1c[nH]cn1)C(=O)NCc1ccccc1 (Boc-Trp-His-NHBn),15.6 µg/mL,,21.2 µg/mL,200 µg/mL,40.7 µg/mL,Non-toxic,> 200 µg/mL,200 µg/mL,> 200 µg/mL,200 µg/mL,200 µg/mL,,9.7 µg/mL
COC(=O)[C@H](Cc1c[nH]c(C(C)C)n1)NC(=O)[C@@H](N)Cc1c[nH]c2ccccc12,,13.1 µg/mL,,> 200 µg/mL,,Non-toxic,200 µg/mL,> 200 µg/mL,200 µg/mL,200 µg/mL,> 200 µg/mL,12.2 µg/mL,15.6 µg/mL
COC(=O)[C@H](CCCNC(=N)N)NC(=O)[C@@H](N)Cc1c[nH]c(C23CC4CC(CC(C4)C2)C3)n1,4.28 µg/mL,3.67 µg/mL,19.4 µg/mL,20 µg/mL,35.5 µg/mL,Non-toxic,10 µg/mL,200 µg/mL,> 200 µg/mL,> 200 µg/mL,200 µg/mL,,
COC(=O)[C@H](Cc1c[nH]c(C2CCCCC2)n1)NC(=O)[C@H](Cc1c[nH]c2ccccc12)NC(=O)OC(C)(C)C,6.29 µg/mL,14 µg/mL,,50 µg/mL,,Non-toxic,200 µg/mL,> 200 µg/mL,200 µg/mL,200 µg/mL,> 200 µg/mL,20.9 µg/mL,17.7 µg/mL
COC(=O)[C@H](CCCNC(=N)N)NC(=O)[C@H](Cc1c[nH]c(C2CCC2)n1)NC(=O)OC(C)(C)C,,,15 µg/mL,> 200 µg/mL,,Non-toxic,> 200 µg/mL,> 200 µg/mL,200 µg/mL,> 200 µg/mL,200 µg/mL,18.1 µg/mL,
NC[C@@H]1O[C@H](O[C@H]2[C@@H](O)[C@H](O[C@@H]3[C@@H](O)[C@H](N)C[C@H](N)[C@H]3O[C@H]3O[C@H](CN)[C@@H](O)[C@H](O)[C@H]3N)O[C@@H]2CO)[C@H](N)[C@@H](O)[C@@H]1O [FRAMYCETIN],,,0.6 µg/mL,,,,,,,,,,
